Measured values published in PMC3095698 (Journal of molecular biology, 2011).

Tests used:
Format in all cases: biochemical
3×HA-DGKα [1] = target: 3×HA-DGKα (Homo sapiens, UniProt P23743, V656L); experiment: […]-ATP phosphorylation in Triton X-100 mixed micelles, COS-7 lysate; settings: 0.1 mM ATP, 5 mM MgCl2, pH 7.5, 25 °C; DOPS in micelles; surface mole percent
3×HA-DGKα [2] = target: 3×HA-DGKα (Homo sapiens, UniProt P23743); experiment: as above; settings: 0.1 mM ATP, 5 mM MgCl2, pH 7.5, 25 °C; DOPS in micelles; surface mole percent
3×HA-DGKα (Homo sapiens, UniProt P23743), sequence (P23743 whole entry): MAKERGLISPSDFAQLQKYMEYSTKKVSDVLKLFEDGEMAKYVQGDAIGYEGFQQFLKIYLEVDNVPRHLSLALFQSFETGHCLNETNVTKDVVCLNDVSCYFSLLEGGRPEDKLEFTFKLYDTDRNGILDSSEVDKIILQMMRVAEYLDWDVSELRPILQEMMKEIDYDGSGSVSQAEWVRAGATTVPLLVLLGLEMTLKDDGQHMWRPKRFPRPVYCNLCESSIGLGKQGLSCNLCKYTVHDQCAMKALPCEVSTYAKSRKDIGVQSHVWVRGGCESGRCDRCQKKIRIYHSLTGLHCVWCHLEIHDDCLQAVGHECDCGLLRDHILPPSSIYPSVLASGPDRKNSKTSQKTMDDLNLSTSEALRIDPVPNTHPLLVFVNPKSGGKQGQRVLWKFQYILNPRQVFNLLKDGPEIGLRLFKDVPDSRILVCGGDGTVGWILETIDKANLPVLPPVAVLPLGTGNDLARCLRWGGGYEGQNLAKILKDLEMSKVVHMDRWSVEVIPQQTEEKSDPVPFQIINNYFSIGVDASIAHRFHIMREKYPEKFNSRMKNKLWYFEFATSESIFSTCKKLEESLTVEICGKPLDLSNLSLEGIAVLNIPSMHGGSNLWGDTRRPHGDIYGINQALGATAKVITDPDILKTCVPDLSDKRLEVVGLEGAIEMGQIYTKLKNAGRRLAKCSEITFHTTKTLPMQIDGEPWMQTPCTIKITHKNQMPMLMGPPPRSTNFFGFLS

c-myc-PIP5K Iα = c-myc-PIP5K Iα (Homo sapiens, UniProt Q99755); experiment: activation of DP-PI; settings: activator; 20 μM DP-PI(4)P, 50 μM PA, 50 μM ATP
c-myc-PIP5K Iα, sequence (Q99755 whole entry): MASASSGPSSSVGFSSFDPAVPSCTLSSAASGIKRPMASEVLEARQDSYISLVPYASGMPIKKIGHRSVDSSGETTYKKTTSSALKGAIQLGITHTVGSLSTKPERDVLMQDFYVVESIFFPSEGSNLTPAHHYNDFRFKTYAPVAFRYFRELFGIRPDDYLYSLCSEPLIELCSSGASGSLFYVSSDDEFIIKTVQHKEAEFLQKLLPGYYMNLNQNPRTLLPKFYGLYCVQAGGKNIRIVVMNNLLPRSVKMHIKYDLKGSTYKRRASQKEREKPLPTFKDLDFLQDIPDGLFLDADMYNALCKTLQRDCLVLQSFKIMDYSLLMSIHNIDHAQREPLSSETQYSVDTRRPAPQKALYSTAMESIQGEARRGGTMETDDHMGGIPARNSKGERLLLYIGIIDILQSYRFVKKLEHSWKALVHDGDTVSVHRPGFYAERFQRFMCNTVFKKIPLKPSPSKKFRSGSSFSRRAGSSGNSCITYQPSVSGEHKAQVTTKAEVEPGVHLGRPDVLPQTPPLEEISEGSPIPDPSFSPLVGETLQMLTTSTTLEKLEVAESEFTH

3×HA-DGKα (Homo sapiens, UniProt P23743, V656L), sequence (P23743 whole entry V656L): as the sequence (P23743 whole entry) above, with V656L counted along it

Km, mol% (3×HA-DGKα [1]) [mol%]	Km, mol% (3×HA-DGKα [2]) [mol%]	fold activation (c-myc-PIP5K Iα) [fold]	Compound
1.5 ± 0.4	2.8 ± 0.3		CCCCC/C=C\C/C=C\CCCCCCCC(=O)O[C@@H](CO)COC(=O)CCCCCCCCCCCCCCCCC [SLG, 1-Stearoyl-2-linoleoyl-sn-glycerol]
1.8 ± 0.3	2.1 ± 0.4		CCCCC/C=C\C/C=C\C/C=C\C/C=C\CCCC(=O)O[C@@H](CO)COC(=O)CCCCCCCCCCCCCCCCC [SAG, 1-Stearoyl-2-arachidonoyl-sn-glycerol]
		12	CCCCC/C=C\C/C=C\C/C=C\C/C=C\CCCC(=O)OC[C@H](COP(=O)(O)O)OC(=O)CCC/C=C\C/C=C\C/C=C\C/C=C\CCCCC [DAPA, 1,2-Diarachidonoyl phosphatidic acid]
